Test results reported in patent publication US11306102B2, “1,3-di-substituted ketene compound and application thereof” (BEBETTER MED INC., priority 2017, dated 2022).
Blank lines part the entries; values can stand above or below the compound they belong to.

What was measured:
PPARγ = molecular target: T1, PPARγ (Homo sapiens, UniProt P37231); assay: Hela cell/luciferase reporter gene method, PPARγ agonist activity; format: cell-based; settings: Hela cells, pPPRE3-TK-Luciferase reporter, 24 hrs incubation; read-out: agonistic activity on PPARγ (EC50)
T1 construct: expressed in transfected cells; host or cells: Hela cells
T1 sequence (P37231 1-505): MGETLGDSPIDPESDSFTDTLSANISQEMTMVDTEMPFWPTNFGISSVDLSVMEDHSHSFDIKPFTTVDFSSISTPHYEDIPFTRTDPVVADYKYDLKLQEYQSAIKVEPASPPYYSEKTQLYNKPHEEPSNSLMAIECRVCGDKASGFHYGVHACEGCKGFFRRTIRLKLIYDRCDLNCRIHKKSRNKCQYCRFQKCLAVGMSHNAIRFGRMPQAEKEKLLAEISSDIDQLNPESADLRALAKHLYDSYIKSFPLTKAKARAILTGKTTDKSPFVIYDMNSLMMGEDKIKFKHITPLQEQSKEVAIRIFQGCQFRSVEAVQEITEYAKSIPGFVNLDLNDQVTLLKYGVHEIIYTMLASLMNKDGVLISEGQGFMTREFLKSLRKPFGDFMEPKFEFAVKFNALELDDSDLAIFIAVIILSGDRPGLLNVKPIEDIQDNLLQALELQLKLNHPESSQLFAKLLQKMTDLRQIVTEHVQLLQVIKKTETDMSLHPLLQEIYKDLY
Description: (§1) This example measures the biological activity of a PPAR agonist using the Hela cell/luciferase reporter gene method.
(§2) The target plasmids PCMV PPARα (Ampicillin+), PCMV PPARγ (Ampicillin+), PCMV PPARδ (Ampicillin+), and pPPRE3-TK-Luciferase (Ampicillin+) were introduced into DH5a competent cells by heat shock treatment, respectively. After being incubated for 1 hour at 37° C. with shaking (180 rpm), the cells were inoculated on LB agar solid medium containing antibiotic Ampicillin, and invertedly cultured at 37° C. for 12-16 hours. Then the monoclonal colony cultured on the medium was taken and inoculated into LB liquid medium for expanded culture. The desired plasmid was extracted from the resulting bacterial solution with a Plasmid Midi Kit (Qiagen; #12143). The plasmid obtained by centrifugation was suspended in TE buffer, and the plasmid concentration was measured and the mixture was stored at −20° C. Hela cells in the exponential phase were seeded in 6-well plates (8-10^5 cells/well), and after 6-8 hours of culture, the cells were transfected using Lipofectamine® 3000 Transfection Reagent (Invitrogen; #L3000015). A plasmid containing a PPAR binding site (peroxisome proliferator response element, PPRE) and a firefly luciferase gene (pPPRE3-TK-Luciferase) and PPAR expression vector were co-transfected into a Hela cell with a total amount of plasmid DNA of 2.5 ug (the mass ratio of each PPAR expression vector is pPPRE:PPARα=6:1, pPPRE:PPARδ=8:1, and pPPRE:PPARγ=2:1) to construct a drug screening cell model for PPAR agonists. PPAR was binded to the ligand and then binded to the peroxisome proliferator response element (PPRE), thereby initiating downstream firefly luciferase expression and its expression intensity was directly proportional to the degree of PPAR activation. The cells after 24 hours transfection were prepared into a cell suspension with a cell concentration of […] by a complete culture solution, and seeded into a 96-well plate with 100 ul per well. After overnight culture, the medium was changed to a medium containing 1% FBS. 10 mM candidate compound stock (1000×) were 4-fold diluted in DMSO for 8 points, then supplemented with medium containing 1% FBS to a final concentration of 50 uM (5×) by addition of 25 μl of 5× compound diluent to each well in different concentration gradients and incubated under 37° C., 5% CO2 incubator for 24 hrs. The 96-well plate was taken out and 30 μl of Bright-Glo™ Luciferase Assay System (Promega #E2620) was added to each well. The Luciferase luminescence intensity was measured by a SynergyH1 full-function microplate detector. The obtained data was used to calculate EC50 using GraphPad Prism 5.0 software to determine the biological activity of the compound.
(§3) The agonistic activity of the compounds synthesized in Examples 1-41 on PPAR is represented by EC50 (see Table 1). EC50 refers to the drug concentration at which the compound has a 50% increase in the agonistic activity of the measured PPAR. The compound numbers in Table 1 correspond to the compound numbers in Examples 1-41.

PPARα = molecular target: T2, PPARα (Homo sapiens, UniProt Q07869); assay: Hela cell/luciferase reporter gene method, PPARα agonist activity; format: cell-based; settings: Hela cells, pPPRE3-TK-Luciferase reporter, 24 hrs incubation; read-out: agonistic activity on PPAα (EC50)
T2 construct: expressed in transfected cells; host or cells: Hela cells
T2 sequence (Q07869 1-468): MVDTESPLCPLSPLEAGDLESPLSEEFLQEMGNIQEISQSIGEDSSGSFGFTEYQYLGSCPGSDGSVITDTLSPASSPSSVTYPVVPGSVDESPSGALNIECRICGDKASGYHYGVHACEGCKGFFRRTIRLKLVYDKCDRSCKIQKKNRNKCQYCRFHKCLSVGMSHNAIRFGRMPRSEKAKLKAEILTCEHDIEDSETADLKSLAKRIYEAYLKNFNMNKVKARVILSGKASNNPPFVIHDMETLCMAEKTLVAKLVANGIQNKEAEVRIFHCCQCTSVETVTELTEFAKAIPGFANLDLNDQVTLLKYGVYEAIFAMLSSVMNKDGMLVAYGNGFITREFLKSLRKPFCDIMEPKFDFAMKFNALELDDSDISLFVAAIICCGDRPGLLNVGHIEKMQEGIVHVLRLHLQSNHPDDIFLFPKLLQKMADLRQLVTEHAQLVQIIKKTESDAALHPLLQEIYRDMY
Description: as §1, §2, §3

PPARδ = molecular target: T3, PPARδ (Homo sapiens, UniProt Q03181); assay: Hela cell/luciferase reporter gene method, PPARδ agonist activity; format: cell-based; settings: Hela cells, pPPRE3-TK-Luciferase reporter, 24 hrs incubation; read-out: agonistic activity on PPARδ (EC50)
T3 construct: expressed in transfected cells; host or cells: Hela cells
T3 sequence (Q03181 1-441): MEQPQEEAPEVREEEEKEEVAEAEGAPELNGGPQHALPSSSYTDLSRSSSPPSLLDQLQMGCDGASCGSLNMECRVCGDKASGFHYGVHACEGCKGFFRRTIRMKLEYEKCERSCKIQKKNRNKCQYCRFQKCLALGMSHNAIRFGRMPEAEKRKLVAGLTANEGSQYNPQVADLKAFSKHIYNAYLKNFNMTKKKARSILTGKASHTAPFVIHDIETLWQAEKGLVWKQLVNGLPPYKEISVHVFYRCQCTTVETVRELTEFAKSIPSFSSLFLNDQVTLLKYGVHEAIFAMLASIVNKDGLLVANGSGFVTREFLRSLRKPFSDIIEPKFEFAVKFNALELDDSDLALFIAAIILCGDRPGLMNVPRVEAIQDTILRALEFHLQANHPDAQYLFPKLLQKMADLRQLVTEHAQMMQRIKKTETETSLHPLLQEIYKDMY
Description: as §1
as §2, with “The desired plasmid was extracted from the resulting bacterial solution with a Plasmid Midi Kit (Qiagen; #12143).” left out

[1] = Pharmacokinetic (PK) experiments after intragastric administration in rats; format: in vivo, SD rats; settings: male, SD, rat, plasma, po, intragastric administration 20 mg/kg
Description: Male SD rats, weighing 250-300 grams, were fasted overnight before testing. The test compound was dissolved in 30% sulfobutyl-R-cyclodextrin (SBE-β-CD) and administered intragastrically at a dose of 20 mg/kg. Blood was collected 15 minutes, 30 minutes, and 1, 2, 3, 4, […] and 24 hours after the administration. About 0.3 ml of blood was collected at each time point, placed in a centrifuge tube containing K2-EDTA (dipotassium ethylenediamine tetraacetate) and centrifuged (2,000 g, 10 minutes, 4° C.) to take the plasma, which was stored in an ultra-low temperature refrigerator at −80° C. A 50 μL plasma sample was mixed with 5 μl of internal standard (IS) and extracted with ethyl acetate. The residue was redissolved in acetonitrile after drying under vacuum. The sample was filtered and injected into an LC-MS/MS for analysis.

EC50 (PPARγ): 167 nM
EC50 (PPARα): 123 nM
SMILES: Cc1ccc2cc(C(=O)/C=C/c3cc(C)c(OC(C)(C)C(=O)O)c(C)c3)oc2c1 [Compound 50, (E)-2-(2,6-dimethyl-4-(3-(6-methylbenzofuran-2-yl)-3-oxoprop-1-en-1-yl)phenoxy)-2-methylpropanoic acid]

EC50 (PPARγ): 1100 nM
EC50 (PPARα): 83.9 nM
SMILES: CSc1ccc2cc(C(=O)/C=C/c3ccc(OC(C)(C)C(=O)O)cc3)oc2c1 [Compound 56, (E)-2-methyl-2-(4-(3-(6-(methylthio)benzofuran-2-yl)-3-oxoprop-1-en-1-yl)phenoxy)propanoic acid]

AUC(0-inf) [1]: 1350 ng·h/mL
AUC(0-t) [1]: 1350 ng·h/mL
Cmax [1]: 1140 ng/mL
Tmax [1]: 19.8 min
half-life ([1]; read-out: Terminal T1/2 (converted)): 49.2 min
EC50 (PPARγ): 86.6 nM
EC50 (PPARα): 29.2 nM
SMILES: CSc1ccc(C(=O)/C=C/c2cc(C)c(OC(C)(C)C(=O)O)c(C)c2)cc1 [Elafibranor, reference compound]

More lines, now with the values behind:

SMILES: Cc1cc(/C=C/C(=O)c2cccc3ccoc23)cc(C)c1OC(C)(C)C(=O)O [Compound 3, (E)-2-(4-(3-(benzofuran-7-yl)-3-oxoprop-1-en-1-yl)-2,6-dimethylphenoxy)-2-methylpropanoic acid]
EC50 (PPARγ): 577 nM
EC50 (PPARα): 453 nM

SMILES: CSc1ccc(C(=O)/C=C/c2ccc(OC(C)(C)C(=O)O)cc2)c2occc12 [Compound 12, (E)-2-methyl-2-(4-(3-(4-(methylthio)benzofuran-7-yl)-3-oxoprop-1-en-1-yl)phenoxy)propanoic acid]
EC50 (PPARγ): 279 nM
EC50 (PPARα): 99.8 nM

SMILES: CSc1ccc(C(=O)/C=C/c2cc(C)c(OCC(=O)O)c(C)c2)c2occc12 [Compound 13, (E)-2-(2,6-dimethyl-4-(3-(4-(methylthio)benzofuran-7-yl)-3-oxoprop-1-en-1-yl)phenoxy)acetic acid]
EC50 (PPARγ): 3410 nM
EC50 (PPARα): 476 nM

SMILES: CSc1ccc(C(=O)/C=C/c2cc(C)c(OC(C)(C)C(=O)O)c(C)c2)c2oc(C)cc12 [Compound 14, (E)-2-(2,6-dimethyl-4-(3-(2-methyl-4-(methylthio)benzofuran-7-yl)-3-oxoprop-1-en-1-yl)phenoxy)-2-methylpropanoic acid]
EC50 (PPARγ): 122 nM
EC50 (PPARα): 156 nM

SMILES: Cc1cc(/C=C/C(=O)c2ccc3sccc3c2)cc(C)c1OC(C)(C)C(=O)O [Compound 38, (E)-2-(4-(3-(benzo[b]thiophen-5-yl)-3-oxoprop-1-en-1-yl)-2,6-dimethylphenoxy)-2-methylpropanoic acid]
EC50 (PPARδ): 838 nM
EC50 (PPARα): > 10000 nM
